Assay results reported in ChEMBL document CHEMBL1201862, “PubChem BioAssay data set” (2004).
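Interpolation was linear, between the two tested concentrations surrounding the appropriate level; five concentrations were tested over 48 hours in 96-well plates. GI50: concentration for 50% inhibition of growth.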 Active and inactive are the calls of the source. Rule as the data show it: active = GI50 up to about 1.1 µM and inactive = higher.

What was measured:
Experiment in all cases: NCI tumour cell line growth inhibition, 48 h
A498 = system: A498
ACHN = system: ACHN
HCT-15 = system: HCT-15
HL-60 = system: HL-60
K562 = system: K562
KM-20L2 = system: KM-20L2
Malme-3M = system: Malme-3M
NCI-H460 = system: NCI-H460
NCI-H522 = system: NCI-H522
OVCAR-3 = system: OVCAR-3
OVCAR-8 = system: OVCAR-8
RPMI-8226 = system: RPMI-8226
BT-549 = system: BT-549
DU-145 = system: DU-145
Hs-578T = system: Hs-578T
MDA-MB-231 = system: MDA-MB-231
NCI/ADR-RES = system: NCI/ADR-RES
PC-3 = system: PC-3
SR = system: SR
T47D = system: T47D

SMILES	GI50 (A498)	GI50 (ACHN)	GI50 (HCT-15)	GI50 (HL-60)	GI50 (K562)	GI50 (KM-20L2)	GI50 (Malme-3M)	GI50 (NCI-H460)	GI50 (NCI-H522)	GI50 (OVCAR-3)	GI50 (OVCAR-8)	GI50 (RPMI-8226)	GI50 (BT-549)	GI50 (DU-145)	GI50 (Hs-578T)	GI50 (MDA-MB-231)	GI50 (NCI/ADR-RES)	GI50 (PC-3)	GI50 (SR)	GI50 (T47D)
CCOC(=O)C(C(O)c1ccc([N+](=O)[O-])cc1)P(=O)(OCC)OCC (centres undefined)	> 100 µM (inactive)	> 100 µM (inactive)	> 100 µM	16.7 µM (inactive)	31.3 µM (inactive)	> 100 µM (inactive)	> 100 µM (inactive)	> 100 µM (inactive)	29.2 µM (inactive)	> 100 µM (inactive)	95.1 µM (inactive)	32.9 µM (inactive)	–	–	–	–	–	–	–	–
C=C1C(=O)OC2C1C(OC(=O)/C(=C/C)COC(C)=O)CC1(CO1)C1C(OC(=O)/C(=C/C)CO)C=C(C)C21 (centres undefined)	3.03 µM (inactive)	1.9 µM (inactive)	1.59 µM	0.446 µM (active)	1.6 µM (inactive)	2.52 µM (inactive)	1.78 µM (inactive)	6.98 µM (inactive)	–	1.14 µM (inactive)	0.564 µM (active)	0.655 µM (active)	–	–	–	–	–	–	–	–
O=[N+]([O-])c1ccc(CSCc2ccc(Cl)cc2)cc1	> 100 µM (inactive)	> 100 µM (inactive)	> 100 µM	33.1 µM (inactive)	> 100 µM (inactive)	–	> 100 µM (inactive)	> 100 µM (inactive)	20 µM (inactive)	> 100 µM (inactive)	> 100 µM (inactive)	55.7 µM (inactive)	> 100 µM (inactive)	> 100 µM (inactive)	> 100 µM (inactive)	> 100 µM (inactive)	> 100 µM (inactive)	> 100 µM (inactive)	23.8 µM (inactive)	74.3 µM (inactive)
CC(C)(C)NCCC(O)c1cc(C(F)(F)F)nc2c(C(F)(F)F)cccc12 (centres undefined)	15 µM (inactive)	8.3 µM (inactive)	6.41 µM	6.37 µM (inactive)	5.14 µM (inactive)	–	11.6 µM (inactive)	4.83 µM (inactive)	11.7 µM (inactive)	8.38 µM (inactive)	7.53 µM (inactive)	4.58 µM (inactive)	8.11 µM (inactive)	2.38 µM (inactive)	14.2 µM (inactive)	9.4 µM (inactive)	5.97 µM (inactive)	8.57 µM (inactive)	3.62 µM (inactive)	14.3 µM (inactive)
O=c1oc2ccccc2[n+]([O-])c1-c1ccccc1	> 100 µM (inactive)	> 100 µM (inactive)	> 100 µM	> 100 µM (inactive)	> 100 µM (inactive)	> 100 µM (inactive)	> 100 µM (inactive)	> 100 µM (inactive)	36.6 µM (inactive)	> 100 µM (inactive)	> 100 µM (inactive)	> 100 µM (inactive)	–	–	–	–	–	–	–	–
COc1cc(C)cc2c1C(=O)C(Br)=CC2=O	20.1 µM (inactive)	2.52 µM (inactive)	17.4 µM	1.53 µM (inactive)	1.93 µM (inactive)	–	2.1 µM (inactive)	19.4 µM (inactive)	2.03 µM (inactive)	4.82 µM (inactive)	6.34 µM (inactive)	3.13 µM (inactive)	11.1 µM (inactive)	18.3 µM (inactive)	29.4 µM (inactive)	14.7 µM (inactive)	27.3 µM (inactive)	17 µM (inactive)	4.57 µM (inactive)	2.21 µM (inactive)
O=c1[nH]c2cc([N+](=O)[O-])c(Nc3c4ccccc4nc4ccccc34)c([N+](=O)[O-])c2[nH]1	2.08 µM (inactive)	1.98 µM (inactive)	2.58 µM	3.1 µM (inactive)	2.42 µM (inactive)	–	1.77 µM (inactive)	2.36 µM (inactive)	1.46 µM (inactive)	2.58 µM (inactive)	2.43 µM (inactive)	2.55 µM (inactive)	6.53 µM (inactive)	2.29 µM (inactive)	7.18 µM (inactive)	3.21 µM (inactive)	2.41 µM (inactive)	3.32 µM (inactive)	1.74 µM (inactive)	2.49 µM (inactive)
c1ccc(COC2NCCN2Cc2ccccc2)cc1 (centres undefined)	41.7 µM (inactive)	> 100 µM (inactive)	> 100 µM	69 µM (inactive)	> 100 µM (inactive)	–	> 100 µM (inactive)	> 100 µM (inactive)	> 100 µM (inactive)	> 100 µM (inactive)	> 100 µM (inactive)	> 100 µM (inactive)	> 100 µM (inactive)	> 100 µM (inactive)	5.64 µM (inactive)	> 100 µM (inactive)	84.5 µM (inactive)	> 100 µM (inactive)	> 100 µM (inactive)	> 100 µM (inactive)
Cn1cc2c(=O)n3ncn(-c4ccc(Br)cc4)c3nc2n1	> 100 µM (inactive)	> 100 µM (inactive)	> 100 µM	> 100 µM (inactive)	> 100 µM (inactive)	–	> 100 µM (inactive)	> 100 µM (inactive)	> 100 µM (inactive)	> 100 µM (inactive)	> 100 µM (inactive)	> 100 µM (inactive)	> 100 µM (inactive)	> 100 µM (inactive)	> 100 µM (inactive)	> 100 µM (inactive)	> 100 µM (inactive)	> 100 µM (inactive)	> 100 µM (inactive)	> 100 µM (inactive)
